Measurements as given in patent US11274132B2, “Combined preparations of PKM2 modulators and HMGB1” (Ruprecht-Karls-Universität Heidelberg, priority 2015, dated 2022).
Entries after “also recorded” stand apart in the source; their conditions may differ. Read-outs that look alike come from different tables or passages of the source. Residues, ends and D or L forms follow the SMILES beside them.

Legend:
tetrameric PK M2 = target: T1, tetrameric PK M2 (Homo sapiens, UniProt P14618); experiment: Pyruvate kinase enzymatic assay in cytosolic fractions / homogenates (low PEP); type: cell-based; details: glycyrrhizin 200 μM
T1 construct: Activities of glycolytic enzymes measured in cytosolic fractions after treatment with HMGB1; endogenous in cells; host or cells: SW480, HCT116, HT29 cytosolic fractions; homogenates of human colon cancer tissue slices
Procedure: Enzymatic activities of respiratory chain complexes, glycolytic proteins and malic enzyme were determined in subcellular fractions as previously described (Kaminski, M. M. et al. T cell activation is driven by an ADP-dependent glucokinase linking enhanced glycolysis with mitochondrial reactive oxygen species generation. Cell reports 2, 1300-1315 (2012).Bruncko, M. et al. Naphthamidine urokinase plasminogen activator inhibitors with improved pharmacokinetic properties. Bioorganic & medicinal chemistry letters 15, 93-98, (2005)) using a computer-tuneable spectrophotometer (Spectramax Plus Microplate Reader, Molecular Devices; Sunny Vale, Calif., USA) operating in the dual wavelength mode; samples were analyzed in temperature-controlled 96-well plates in a final volume of 300 μl. Activity of ME1 was recorded in presence of increasing amounts of malic acid (0.02, 0.05, 0.1, 0.2, 0.5, 1, 2.5 mM). Vmax and Km were calculated using a Hanes-Woolf plot. In the presence of high substrate levels the Km for malic acid was similar in all three tested cell lines (SW480: 0.32 mM, HCT116: 0.30 mM, HT29: 0.31 mM). Vmax (mU/mg protein) values were 3.38 (SW480, 0.5-5.0 mM malic acid), 5.77 (HCT116, 0.5-5.0 mM malic acid) and 3.68 (HT29, 0.5-5.0 mM malic acid) and 1.68 (SW480, 0.02-0.2 mM malic acid), 3.24 (HCT116, 0.02-0.2 mM malic acid) and 1.89 (HT29, 0.02-0.2 mM malic acid). Two isoforms of ME1, mitochondrial (NAD(P)+dependent) ME3 and mitochondrial (NAD+dependent) ME2, had very low or no detectable activities (data not shown).

[1] = test system: glucose flux (glycolysis); experiment: Glycolysis: conversion of 5-3H-Glucose to 3H2O; type: cell-based, human; details: SW480 cells; co-treatment, glycyrrhizin 200 μM
Procedure: Lactate derived from the metabolism of ^13C6-D-glucose or ^13C5-glutamine was determined by comparing the CH3 group intensities of labeled and non-labeled lactate in NMR. Mitochondrial respiration was measured using an Oroboros 1 oxygraph system. Glycolysis was measured by monitoring the conversion of 5-^3H-Glucose to ^3H2O. Incorporation of ^14C into RNA ribose from U-^14C-labelled glucose was taken as glucose utilization in the pentose phosphate shunt. Enzymatic activities were determined in subcellular fractions as previously described^24.

HT29 cells = experiment: Crystal violet cytotoxicity assay; type: cell-based; details: 72 h
Procedure: (§1) Human colon carcinoma cell lines SW480, HCT116, HT29 and Caco2, the human glioblastoma cell line U251MG and the Natural killer cell line NK-92 Cl were purchased from ATCC. Cell lines were regularly tested for contamination by multiplex PCR performed in the Genomics and Proteomics Core Facility 2 (DKFZ, Heidelberg, Germany). For experiments, cells were cultured for no more than 10 passages. Rho zero cells were generated as described earlier 1. (Gdynia, G. et al. Danger signaling protein HMGB1 induces a distinct form of cell death accompanied by formation of giant mitochondria. Cancer research 70, 8558-8568). Cells used in the experiments were cultured in RPMI (#1640, colon carcinomas, NK cells) or DMEM high glucose (#41965-039, glioblastoma cells) medium. Rho zero cells were generated as described earlier (Gdynia, G. et al. ibd.). Briefly, cells were cultured in RPMI medium (10% FCS, 1% P/S) supplemented with 250 ng/ml ethidiumbromide, 50 μg/ml L-pyruvate and 5 mg/ml uridine over a period of 12 weeks. For cytotoxicity measurements, cells were cultured in 96-well plates, treated with recombinant human HMGB1 protein (Sigma-Aldrich®), glycyrrhizinic acid ((3β, 18α)-30-hydroxy-11, 30-dioxoolean-12-en-3-yl 2-O-β-D-glucopyranuronosyl-β-D-glucopyranosiduronic acid)) (Sigma-Aldrich®), 10 μM (non-toxic) or 100 μM (cytotoxic) P-M2tide (aa sequence: GGAVDDDpYAQFANGG; #BML-P239-0001; Enzo Life Sciences) or 100 μM ML-265 (Cayman Chemical), then cell viability was assessed by crystal violet staining (Gillies, R. J., Didier, N. & Denton, M. Determination of cell number in monolayer cultures. Analytical biochemistry 159, 109-113 (1986)). Malic enzyme 1 knock-down was performed with 40 nM siRNA using lipofectamine in 6-well plates followed by treatment with 80 nM HMGB1 for 72 h. Sequences of siRNA were: ME1, 5′-[…]-3′ and scrambled control 5′-CCUGCAGUACUUCAAGCGGtt-3′. PKM2 siRNA was from Santa Cruz. A nonspecific siRNA served as control (Dharmacon, Schwerte, Germany). For overexpression of PKM2 or ME1, cells were transfected with pCMV-PKM2 (Sino Biological Inc., Beijing, China) or pCMV-ME1 (OriGene, Rockville, Md., USA) using Lipofectamine 2000. For cytotoxicity measurements confluent cells were cultured in 96-well plates if not otherwise indicated. Cytotoxic activity of supernatants from stimulated NK cells was assessed in 96-well plates for 3 days with RPMI medium as reference. Recombinant human HMGB1 (10 ng, Sigma) suited as positive control. For mass isotopomer assays, cells were cultured in glucose- or glutamine-free medium supplemented with either uniformly labeled (U)-13C-D-glucose or U-13C-glutamine (Sigma-Aldrich®).

[2] = test system: HCT116 colorectal cancer cells; experiment: Crystal violet cytotoxicity assay; type: cell-based
Procedure: as §1

[3] = test system: SW480 colorectal cancer cells; experiment: Crystal violet cytotoxicity assay; type: cell-based
Procedure: as §1

[4] = CellTiter-Glo Luminescent Cell Viability Assay; type: cell-based, human; details: human, CLL cells from a patient, DASA 100 μM, read-out: Viable cells [DASA]
colorectal cancer cells = experiment: Crystal violet cytotoxicity assay, cell lines not given; type: cell-based
Procedure: as §1

PKM2 = PKM2 (Homo sapiens, UniProt P14618); experiment: Immunoprecipitation with 125I-labeled HMGB1 (PKM2 pull-down); type: binding; set-up: endogenous in cells; details: P-M2tide at non-cytotoxic concentrations
Procedure: FIG. 6: Co-administration of HMGB1 and an activator (A left and right) or an inhibitor (B) of PMK2 has a synergistic cytotoxic effect, as determined in the crystal violet cytotoxicity assay (assays were performed in duplicate, * indicates p<0.05). (C) Immunoprecipitation with I125-labeled HMGB1 (PKM2 pull-down). HMGB1, like phosphotyrosine-peptides, binds close to the allosteric center of PKM2, leading to a competition in binding.

CLL cells = experiment: CellTiter-Glo Luminescent Cell Viability Assay; type: cell-based, human
[5] = glycyrrhizin as inhibitor of HMGB1
[6] = supernatants of anti-Nkp30 stimulated blood NK cells, glycyrrhizin 200 μM, 72 h
[7] = 72 h, NK cell derived HMGB1 approx. 16 nM, recombinant human HMGB1 80 nM

Chain of PKM2 (P14618 whole entry): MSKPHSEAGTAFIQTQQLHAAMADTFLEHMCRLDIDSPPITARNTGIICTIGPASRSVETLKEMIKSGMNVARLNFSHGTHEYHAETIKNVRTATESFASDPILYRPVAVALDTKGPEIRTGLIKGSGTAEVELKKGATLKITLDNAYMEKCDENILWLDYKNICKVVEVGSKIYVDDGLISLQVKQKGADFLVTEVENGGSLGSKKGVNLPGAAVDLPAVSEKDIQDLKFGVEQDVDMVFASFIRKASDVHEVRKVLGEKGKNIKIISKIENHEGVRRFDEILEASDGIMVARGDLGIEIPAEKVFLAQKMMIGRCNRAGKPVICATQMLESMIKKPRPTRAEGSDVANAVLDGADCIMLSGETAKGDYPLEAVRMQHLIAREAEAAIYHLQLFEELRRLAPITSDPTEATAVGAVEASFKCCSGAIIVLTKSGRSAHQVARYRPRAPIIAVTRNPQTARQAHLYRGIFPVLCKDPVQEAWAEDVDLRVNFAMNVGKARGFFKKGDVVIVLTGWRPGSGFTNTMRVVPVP
T1 sequence (P14618 2-531): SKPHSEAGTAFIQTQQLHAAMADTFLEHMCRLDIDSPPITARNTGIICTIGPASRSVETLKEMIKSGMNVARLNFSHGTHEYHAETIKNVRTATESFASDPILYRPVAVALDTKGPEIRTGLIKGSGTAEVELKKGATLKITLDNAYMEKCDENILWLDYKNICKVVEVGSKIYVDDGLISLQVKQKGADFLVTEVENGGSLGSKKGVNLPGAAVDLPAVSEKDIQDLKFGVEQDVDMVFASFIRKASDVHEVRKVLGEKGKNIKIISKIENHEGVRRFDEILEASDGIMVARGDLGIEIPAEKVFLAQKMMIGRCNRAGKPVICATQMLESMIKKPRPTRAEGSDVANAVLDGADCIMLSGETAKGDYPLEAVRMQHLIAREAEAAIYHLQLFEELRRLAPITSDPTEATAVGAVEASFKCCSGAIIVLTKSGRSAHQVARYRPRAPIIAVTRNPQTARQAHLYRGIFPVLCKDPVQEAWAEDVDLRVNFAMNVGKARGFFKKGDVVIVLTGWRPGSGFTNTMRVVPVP

## CC1(C)[C@@H](O[C@H]2O[C@H](C(=O)O)[C@@H](O)[C@H](O)[C@H]2O[C@@H]2O[C@H](C(=O)O)[C@@H](O)[C@H](O)[C@H]2O)CC[C@]2(C)[C@H]3C(=O)C=C4[C@@H]5C[C@@](C)(C(=O)O)CC[C@]5(C)CC[C@@]4(C)[C@]3(C)CC[C@@H]12 [glycyrrhizin, (3β, 18α)-30-hydroxy-11, 30-dioxoolean-12-en-3-yl 2-O-β-D-glucopyranuronosyl-β-D-glucopyranosiduronic acid, reference compound]
Tetrameric PK M2
  restoration of tetrameric PK M2 activity inhibited by NK cell supernatant: completely restored
[1]
  reversal of HMGB1-induced metabolic shift: partly reversed
HT29 cells; supernatants of anti-Nkp30 stimulated blood NK cells, glycyrrhizin 200 μM
  effect on NK cell-dependent cytotoxic effect: diminished
[2]; [5]
  blocking of HMGB1 cytotoxic effects: significantly blocked
[2]; [6]
  effect on NK cell-dependent cytotoxic effect: diminished
[3]; [5]
  blocking of HMGB1 cytotoxic effects: significantly blocked
[3]; [6]
  effect on NK cell-dependent cytotoxic effect: not changed

## O=S(=O)(c1ccc2c(c1)OCCO2)N1CCN(S(=O)(=O)c2c(F)cccc2F)CC1 [DASA, 1-(2,6-Difluorophenylsulfonyl)-4-(2,3-dihydrobenzo[b][1,4]dioxin-6-ylsulfonyl)piperazine]
[4]; patient P0010, sample 13PB0501
  viability at 100 μM: 100%
[4]; patient P0010, sample 14PB0132
  viability at 100 μM: 67%
[4]; patient P0074, sample 14BP0079
  viability at 100 μM: 37%
[4]; patient P0369, sample 13PB0555
  viability at 100 μM: 100%
[4]; patient P0460, sample 14PB0471
  viability at 100 μM: 72%
[4]; patient P0641, sample 13PB0500
  viability at 100 μM: 100%
[4]; patient P0641, sample 13PB0649
  viability at 100 μM: 88%
[4]; patient P0645, sample 13PB0473
  viability at 100 μM: 90%
[4]; patient P0701, sample 14PB0451
  viability at 100 μM: 100%

## CC[C@H]1/C=C/C=C/C[C@@H](C)[C@H](O)[C@@](C)(O)C(=O)[C@@H](C)[C@H](O)[C@@H](C)C(=O)[C@@H](C)[C@H](O)[C@@H](C)/C=C/C(=O)O[C@@H]2[C@H](C)[C@H](CC1)O[C@]1(CC[C@H](C)[C@H](C[C@@H](C)O)O1)[C@H]2C [oligomycin, reference compound]
[2]; oligomycin 10 ng/ml, 72 h
  cell death: rapid cell death
[3]; oligomycin 10 ng/ml, 72 h
  cell death: rapid cell death

## HPLC-purified HMGB1: HPLC-purified HMGB1 from the supernatant of Nkp30 stimulated blood donor NK cells
Colorectal cancer cells; 80 nM, 24 h, diluted in IgG1 control supernatant
  cytotoxicity: substantial cytotoxicity

## NK cell derived HMGB1: HMGB1 isolated from the cytosolic granules of the NK cell line NK-92 CI by HPLC (eluate #38)
HT29 cells; 80 nM or 160 nM
  side-by-side cytotoxicity versus recombinant HMGB1: higher cytotoxicity than recombinant HMGB1
[2]; [7]
  cell death (cytotoxicity): efficiently killed
[3]; [7]
  cell death (cytotoxicity): efficiently killed

## [N-]=[N+]=CC(=O)CC[C@H](N)C(=O)O [L-DON, 6-diazo-5-oxo-L-norleucine]
Colorectal cancer cells; L-DON 1 μM with HMGB1, glucose deprived and glucose supplemented medium
  cytotoxicity of glutaminolysis inhibition together with HMGB1: synergistic cytotoxicity

## Cn1c2cc([S+](C)[O-])sc2c2cnn(Cc3cccc(N)c3)c(=O)c21 (stereo not shown) [ML-265, 6-(3-aminobenzyl)-4-methyl-2-(methylsulfinyl)-4,6-dihydro-5H-thieno[2′,3′:4,5]pyrrolo[2,3-d]pyridazin-5-one]
PKM2
  competition with binding of HMGB1 to PKM2: did not compete
PKM2; listed as ML265
  competition with binding of HMGB1 to PKM2: does not compete
Colorectal cancer cells; 100 μM, 24 h
  induction of cell death: did not induce cytotoxicity; also recorded: not able to induce cell death

## CC(C)[C@H](NC(=O)[C@H](C)NC(=O)CNC(=O)CN)C(=O)N[C@@H](CC(=O)O)C(=O)N[C@@H](CC(=O)O)C(=O)N[C@@H](CC(=O)O)C(=O)N[C@@H](Cc1ccc(OP(=O)(O)O)cc1)C(=O)N[C@@H](C)C(=O)N[C@@H](CCC(N)=O)C(=O)N[C@@H](Cc1ccccc1)C(=O)N[C@@H](C)C(=O)N[C@@H](CC(N)=O)C(=O)NCC(=O)NCC(=O)O [P-M2tide, GGAVDDDpYAQFANGG] (HELM PEPTIDE1{G.G.A.V.D.D.D.[O=C([C@H](Cc1ccc(OP(=O)(O)O)cc1)N[*:1])[*:2]].A.Q.F.A.N.G.G}$$$$V2.0)
CLL cells; patient P0010, sample 13PB0501, PM2-tide 100 μM, 250 µM
  Viable cells [PM2-tide]: 100%
CLL cells; patient P0010, sample 14PB0132, PM2-tide 100 μM, 250 µM
  Viable cells [PM2-tide]: 75%
CLL cells; patient P0074, sample 14BP0079, * responding to 100 μM PM2-tide
  Viable cells [PM2-tide]: 46%*
CLL cells; patient P0369, sample 13PB0555, PM2-tide 100 μM, 250 µM
  Viable cells [PM2-tide]: 100%
CLL cells; patient P0460, sample 14PB0471, * responding to 100 μM PM2-tide
  Viable cells [PM2-tide]: 56%*
CLL cells; patient P0641, sample 13PB0500, PM2-tide 100 μM, 250 µM
  Viable cells [PM2-tide]: 100%
CLL cells; patient P0641, sample 13PB0649, PM2-tide 100 μM, 250 µM
  Viable cells [PM2-tide]: 93%
CLL cells; patient P0645, sample 13PB0473, PM2-tide 100 μM, 250 µM
  Viable cells [PM2-tide]: 91%
CLL cells; patient P0701, sample 14PB0451, PM2-tide 100 μM, 250 µM
  Viable cells [PM2-tide]: 100%
Colorectal cancer cells; 10 μM P-M2tide
  toxicity: non-toxic
Colorectal cancer cells; 100 μM P-M2tide
  toxicity: cytotoxic
